The target in data set [1] is T1, Nuclear receptor subfamily 1 group I member 2 (Homo sapiens, UniProt O75469).
T1 sequence (O75469 whole entry): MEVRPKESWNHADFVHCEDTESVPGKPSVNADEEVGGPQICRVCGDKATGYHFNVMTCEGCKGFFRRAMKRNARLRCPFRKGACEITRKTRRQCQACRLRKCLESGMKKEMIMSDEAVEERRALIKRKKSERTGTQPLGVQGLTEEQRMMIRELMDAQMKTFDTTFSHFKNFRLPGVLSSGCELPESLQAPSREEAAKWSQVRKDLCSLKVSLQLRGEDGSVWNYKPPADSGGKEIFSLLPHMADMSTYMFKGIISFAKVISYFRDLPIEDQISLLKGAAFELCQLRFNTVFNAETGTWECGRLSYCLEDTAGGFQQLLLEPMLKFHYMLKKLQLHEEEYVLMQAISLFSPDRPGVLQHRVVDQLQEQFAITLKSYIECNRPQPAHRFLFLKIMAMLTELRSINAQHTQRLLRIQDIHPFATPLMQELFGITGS
Description: Activation of PXR at 10 uM.

In data set [2] the target is T2, Bombesin receptor subtype-3 (Mus musculus) (UniProt O54798).
T2 sequence (whole entry): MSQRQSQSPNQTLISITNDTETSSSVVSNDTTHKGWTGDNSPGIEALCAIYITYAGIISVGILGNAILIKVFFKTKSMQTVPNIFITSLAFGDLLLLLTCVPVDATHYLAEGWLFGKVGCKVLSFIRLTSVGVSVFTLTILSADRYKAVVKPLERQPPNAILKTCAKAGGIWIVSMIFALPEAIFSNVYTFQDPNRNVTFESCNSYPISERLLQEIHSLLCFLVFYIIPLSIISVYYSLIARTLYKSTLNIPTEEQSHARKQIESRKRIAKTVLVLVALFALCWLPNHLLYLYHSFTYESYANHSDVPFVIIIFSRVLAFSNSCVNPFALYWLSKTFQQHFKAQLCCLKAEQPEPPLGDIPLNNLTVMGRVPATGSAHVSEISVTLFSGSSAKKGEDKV
Description: Agonist activity at mouse BRS-3 expressed in HEK293AEQ cells assessed as bioluminescence for 10 mins by aequorin bioluminescence assay relative to dY-peptide. In kind it is functional, cell-based.

In data set [3] the target is T3, Bombesin receptor subtype-3 (Homo sapiens, UniProt P32247).
T3 sequence (P32247 whole entry): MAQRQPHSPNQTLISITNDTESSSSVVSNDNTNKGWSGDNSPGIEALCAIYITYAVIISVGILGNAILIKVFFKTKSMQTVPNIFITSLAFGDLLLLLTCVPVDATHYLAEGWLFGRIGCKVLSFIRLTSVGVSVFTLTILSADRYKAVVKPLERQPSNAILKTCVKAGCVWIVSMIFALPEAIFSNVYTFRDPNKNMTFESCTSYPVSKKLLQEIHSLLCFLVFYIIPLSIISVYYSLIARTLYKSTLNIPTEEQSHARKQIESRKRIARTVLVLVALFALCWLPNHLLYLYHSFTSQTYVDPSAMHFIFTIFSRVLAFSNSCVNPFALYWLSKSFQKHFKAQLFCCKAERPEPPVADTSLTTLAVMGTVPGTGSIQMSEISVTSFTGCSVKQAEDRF
Description: Displacement of [125I]-dY-peptide from human BRS-3 expressed in NFAT-CHO cells after 2 hrs by liquid scintillation counting. In kind it is cell-based. Background: Displacement assays read how much labelled ligand stays bound in the presence of the test substance.

Data set [4] deals with T3, Bombesin receptor subtype-3. Description: Agonist activity at human BRS-3 expressed in HEK293AEQ cells assessed as bioluminescence for 10 mins by aequorin bioluminescence assay. The class given is functional, cell-based.
Data set [5] deals with T4, Bombesin receptor subtype-3 (Mus musculus, UniProt O54798).
T4 sequence (O54798 whole entry): T2 sequence (whole entry)
Description: Agonist activity at mouse BRS-3 expressed in HEK293AEQ cells assessed as bioluminescence for 10 mins by aequorin bioluminescence assay. In kind it is functional, cell-based.

The test system of a further data set is Mus musculus. Description: Increase of core body temperature in DIO mouse assessed as AUC (1 to 6 hrs) of body temperature changes at 3 mg/kg by fasted temperature PD assay. The class given is functional.
Data set [6] concerns the target T1, Nuclear receptor subfamily 1 group I member 2. Description: Activation of PXR.
Data set [7] deals with T5, Bombesin receptor subtype-3 (Homo sapiens) (UniProt P32247).
T5 sequence (whole entry): T3 sequence (P32247 whole entry)
Description: Agonist activity at human BRS-3 expressed in HEK293AEQ cells assessed as bioluminescence for 10 mins by aequorin bioluminescence assay relative to dY-peptide. The class given is functional, cell-based.

The nature of data set [8]: Half life in Sprague-Dawley rat at 0.5 mg/kg, iv. The class given is ADME, organism-based. Set-up: dose 0.5 mg/kg, route intravenous. The note with it: in vivo.
The nature of data set [9]: Plasma clearance in Sprague-Dawley rat at 0.5 mg/kg, iv. The class given is ADME, organism-based. Set-up: dose 0.5 mg/kg, route intravenous.
Data set [10] can be described thus: Oral bioavailability in Sprague-Dawley rat at 1 mg/kg. The class given is ADME, organism-based. The note with it: in vivo.
Data set [11] has as its system Rattus norvegicus. Description: Dose normalized AUC in Sprague-Dawley rat at 1 mg/kg, po. The class given is ADME, organism-based. Set-up: dose 1 mg/kg, route oral. Conditions: in vivo.
Data set [12] relates to Rattus norvegicus. Description: Antiobesity activity in DIO Sprague-Dawley rat assessed as reduction of body weight at 3 mg/kg, po administered bid for 12 days. The class given is functional. Set-up: scale not given: the % may be the effect or the level left.

A word on the IC50: it is the midpoint of a concentration-inhibition curve. Broadly, the EC50 is the midpoint of the concentration-response curve. The term half-life denotes the time in which the quantity being followed falls by half. The clearance is the rate of elimination divided by the concentration. What is called bioavailability is the share of a dose that reaches the circulation, judged against a reference dose that is usually intravenous.

Regarding `Cc1ccc2c(c1C)N(S(=O)(=O)c1ccc(C(C)(C)C)cc1)Cc1ccc(C(F)(F)F)nc1N2`, the Activity in [1] was 42%.
For `Cn1cc(-c2cccc3c2N(S(=O)(=O)c2ccc(C(C)(C)C)cc2)Cc2ccc(C(F)(F)F)nc2N3)cn1`, the Activity in data set [2] is 110%; in data set [1], 50%; in the data set with Mus musculus, 0.2 degreeC.hr; in [7] it was 95%. The IC50 in [3] was 0.76 nM. Besides, the EC50 turned out to be 63 nM in [4], 102 nM in data set [5] and 1100 nM in data set [6].
Consider `CC(C)c1ccc(S(=O)(=O)N2Cc3ccc(C(F)(F)F)nc3Nc3cccc(-c4noc(C(C)(C)O)n4)c32)cc1`, for which the results for the Activity (in data set [2]; in data set [1]; with Mus musculus) were 114%, 80% and 4.93 degreeC.hr, respectively. In data set [3], this molecule registered an IC50 of 1.7 nM. In data set [8], this molecule had a half-life of 1.6 h. The figures for the half-maximal effective concentration (EC50) in data set [5] and in data set [6] were 147 nM and 2400 nM, respectively. In [9], this molecule showed a clearance of 49 mL/min/kg. The same molecule displayed a bioavailability in data set [10] of 8%.
On to `CC(C)(C)c1ccc(S(=O)(=O)N2Cc3ccc(C(F)(F)F)nc3Nc3cccc(-c4noc(=O)[nH]4)c32)cc1`, for which the Activity in data set [2] was 105%; in data set [1], 42%; with Mus musculus, -0.52 degreeC.hr; in data set [7] it was 104%. The molecule also registered an IC50 in data set [3] of 29 nM. Besides, the results for the EC50 in data set [4], in data set [5] and in data set [6] were 77 nM, 76 nM and 1900 nM, respectively.
`CC(C)(C)c1ccc(S(=O)(=O)N2Cc3ccc(C(F)(F)F)nc3Nc3cccc(-c4ncon4)c32)cc1`: the Activity was found to be 116% in data set [2], 53% in [1], 2.1 degreeC.hr in the data set on Mus musculus and 102% in data set [7]. The 50% inhibitory concentration (IC50) in [3] worked out at 1.1 nM. The EC50 in data set [4] amounted to 40 nM; in [5], 57 nM; in [6] it was 11800 nM.
Regarding `CC(C)(O)c1nc(-c2cccc3c2N(S(=O)(=O)c2ccc(C(F)(F)F)cc2)Cc2ccc(C(F)(F)F)nc2N3)no1`, the Activity in data set [2] stood at 97%; in [1], 6%; in the data set with Mus musculus it was 5.22 degreeC.hr. Further, the IC50 in data set [3] was 8.3 nM. Moreover, the half-life in data set [8] is 2.5 h. For the same molecule, the concentration for a half-maximal effect (EC50) is 95 nM in [5] and more than 30000 nM in data set [6]. Further, in the data set on Rattus norvegicus [11], the AUC/dose was determined as 1.05 µM·kg·h/mg. For the same molecule, in data set [9], the clearance was found to be 33 mL/min/kg. In [10], this molecule gave a bioavailability of 100%.
Take `CC(C)(C)c1ccc(S(=O)(=O)N2Cc3ccc(C(F)(F)F)nc3Nc3cccc(C4CCNCC4)c32)cc1`: the Activity in data set [2] is 129%; in data set [1], 37%; with Mus musculus it was -0.74 degreeC.hr; in [7] it was 101%. Moreover, the IC50 in data set [3] worked out at 1.4 nM. In addition, the concentration for a half-maximal effect (EC50) in data set [4] was 114 nM; in data set [5] it was 115 nM; in data set [6] it was 6600 nM.
In the case of `CC(C)(C)c1ccc(S(=O)(=O)N2Cc3ccc(C(F)(F)F)nc3Nc3cccc(-c4noc(C(C)(C)O)n4)c32)cc1`, the Activity stood at 117% in data set [2], 13% in data set [1], 2.6 degreeC.hr with Mus musculus and 106% in data set [7]. The IC50 in [3] amounted to 0.9 nM. In addition, the half-life in data set [8] is 1.9 h. In addition, the concentration for a half-maximal effect (EC50) in data set [4] is 52 nM; in [5], 83 nM; in data set [6], more than 10000 nM. The molecule further displayed an AUC/dose in the data set with Rattus norvegicus [11] of 0.65 µM·kg·h/mg. Further, in data set [9], the clearance stood at 44 mL/min/kg. This molecule came in with a bioavailability in data set [10] of 14%.
Consider `CCNC(C)Cc1cccc(C(F)(F)F)c1` (stereo not given) [FENFLURAMINE], for which the Activity in the data set on Rattus norvegicus [12] is 6.2%.
Take `C[C@H](O)c1nc(-c2cccc3c2N(S(=O)(=O)c2ccc(C(C)(C)C)cc2)Cc2ccc(C(F)(F)F)nc2N3)no1`: the Activity in data set [2] worked out at 109%; in data set [1], 9%; in the data set with Mus musculus it was 3.7 degreeC.hr; in [7], 102%. Further, the half-inhibitory concentration (IC50) in [3] came out at 1.2 nM. In addition, the half-life in data set [8] is 2.1 h. For the same molecule, the EC50 was 52 nM in [4], 89 nM in data set [5] and more than 10000 nM in data set [6]. In the data set with Rattus norvegicus [11], this molecule registered an AUC/dose of 0.34 µM·kg·h/mg. In data set [9], this molecule yielded a clearance of 86 mL/min/kg. Also, the bioavailability in data set [10] worked out at 14%.
On to `CC(C)(O)c1nc(-c2cccc3c2N(S(=O)(=O)c2ccc(OC(F)F)cc2)Cc2ccc(C(F)(F)F)nc2N3)no1`, for which the Activity turned out to be 94% in [2], 22% in data set [1] and 3.31 degreeC.hr in the data set with Mus musculus. Besides, in data set [3], the IC50 was 18 nM. The values for the half-maximal effective concentration (EC50) in [5] and in [6] were 99 nM and 10000 nM, respectively.
For `CC(C)(C)c1ccc(S(=O)(=O)N2Cc3ccc(C(F)(F)F)nc3Nc3cccc(-c4noc(CO)n4)c32)cc1`, the Activity in data set [2] amounted to 114%; in data set [1], 78%; in the data set on Mus musculus, 2.6 degreeC.hr; in data set [7] it was 102%. The IC50 in [3] stood at 0.7 nM. The same molecule had a half-life in data set [8] of 1.7 h. The concentration giving a half-maximal response (EC50) was found to be 56 nM in [4], 93 nM in data set [5] and 3500 nM in [6]. For the same molecule, the AUC/dose in the data set on Rattus norvegicus [11] came out at 0.39 µM·kg·h/mg. In [9], the clearance amounted to 22 mL/min/kg. This molecule gave a bioavailability in [10] of 29%.
For the molecule `CC(C)(C)c1ccc(S(=O)(=O)N2Cc3ccc(C(F)(F)F)nc3Nc3cccc(-c4cccnc4)c32)cc1`, the Activity in data set [2] was 105%; in [1] it was 77%; in the data set with Mus musculus, -0.99 degreeC.hr; in [7] it was 99%. In data set [3], this molecule returned a 50% inhibitory concentration (IC50) of 1.72 nM. Further, the values for the concentration giving a half-maximal response (EC50) in data set [4], in data set [5] and in data set [6] were 42 nM, 58 nM and 1800 nM, respectively.
As to `C[C@@H](O)c1nc(-c2cccc3c2N(S(=O)(=O)c2ccc(C(C)(C)C)cc2)Cc2ccc(C(F)(F)F)nc2N3)no1`, the Activity in [2] amounted to 112%; in data set [1], 18%; with Mus musculus, 0.4 degreeC.hr; in [7], 107%. The molecule also showed a half-maximal inhibitory concentration (IC50) in [3] of 1.9 nM. The half-life in [8] was 1.8 h. The EC50 in data set [4] was 69 nM; in [5], 134 nM; in data set [6], more than 25000 nM. In the data set on Rattus norvegicus [11], this molecule gave an AUC/dose of 0.9 µM·kg·h/mg. This molecule also came in with a clearance in [9] of 33 mL/min/kg. This molecule also displayed a bioavailability in data set [10] of 11%.

These data come from ChEMBL document CHEMBL2163341, “Discovery of MK-7725, A Potent, Selective Bombesin Receptor Subtype-3 Agonist for the Treatment of Obesity” (ACS Med Chem Lett, 2012).
